The values that follow come from publication PMC10515590 (ACS Omega, 2023).

The conditions of data set [1]: cited from earlier work.
The nature of data set [2]: Shake flask solubility in pH 6.8 phosphate buffer. Format: physicochemical.
The nature of data set [3]: Powder dissolution, USP apparatus II. Format: physicochemical. As to conditions: pH 6.8.
Data set [4] can be described thus: Pharmacokinetic study after oral administration. Format: in vivo, BALB/c mice. Conditions: female, BALB/c, mouse, plasma, 30 mg/kg.
For data set [5] the following is noted: after oral administration; cited from earlier work.
Setting [6] is: first pKa, 24 for cocrystal coformers.

≈ marks a conversion by molar mass, not a printed value. Where two headings read alike, the source gives them in different places.

With `O=C(O)c1ccnc(C(=O)O)c1` [pyridine 2,4-dicarboxylic acid], the pKa in data set [1] (setting [6]) is given as 2.15.

In the case of `O=C(O)CCCC(=O)O` [glutaric acid], the solubility of coformer in data set [1] (highly soluble coformers) is 1600 mg/mL.

Turning to `O=C(O)c1c(O)cccc1O` [2,6-dihydroxybenzoic acid], in data set [1] (coformers), the log partition coefficient (log P) was 2.14.

Regarding `O=C(O)c1ccc(O)cc1O` [2,4-dihydroxybenzoic acid], the pKa in data set [1] (second pKa, ref 24 for 2,4-dihydroxybenzoic acid) is 8.5.

In the case of `Oc1ncnc2[nH]ncc12` [ALO, 1H-pyrazolo[3,4-d]pyrimidine-4(2H)-one], in data set [2], the solubility at 4 h was 0.687 mg/mL (≈ 5.05 mM). The same compound registered a solubility at 1 h in data set [3] of 0.676 mg/mL (≈ 4.97 mM). Moreover, in data set [4], the AUC(0-t) was found to be 36900 ng·h/mL and the highest level (Cmax) was 7010 ± 187 ng/mL. The “time within which the drug is metabolized” value in data set [5] is given as no more than 2 h. For the same compound, the aqueous solubility in data set [1] is 0.8 mg/mL (≈ 5.88 mM). The pKa in data set [1] (setting [6]) is listed as 10.1.
